Structures can show the parent of a compound that is named as a salt.
Biological target: T1, JAK3 (Homo sapiens, UniProt P52333)
T1 construct: The Ramos B-cell line was acquired from ATCC (ATCC Catalog No. CRL-1596); host or cells: Ramos B-cell line (human)
T1 sequence (P52333 1-1124): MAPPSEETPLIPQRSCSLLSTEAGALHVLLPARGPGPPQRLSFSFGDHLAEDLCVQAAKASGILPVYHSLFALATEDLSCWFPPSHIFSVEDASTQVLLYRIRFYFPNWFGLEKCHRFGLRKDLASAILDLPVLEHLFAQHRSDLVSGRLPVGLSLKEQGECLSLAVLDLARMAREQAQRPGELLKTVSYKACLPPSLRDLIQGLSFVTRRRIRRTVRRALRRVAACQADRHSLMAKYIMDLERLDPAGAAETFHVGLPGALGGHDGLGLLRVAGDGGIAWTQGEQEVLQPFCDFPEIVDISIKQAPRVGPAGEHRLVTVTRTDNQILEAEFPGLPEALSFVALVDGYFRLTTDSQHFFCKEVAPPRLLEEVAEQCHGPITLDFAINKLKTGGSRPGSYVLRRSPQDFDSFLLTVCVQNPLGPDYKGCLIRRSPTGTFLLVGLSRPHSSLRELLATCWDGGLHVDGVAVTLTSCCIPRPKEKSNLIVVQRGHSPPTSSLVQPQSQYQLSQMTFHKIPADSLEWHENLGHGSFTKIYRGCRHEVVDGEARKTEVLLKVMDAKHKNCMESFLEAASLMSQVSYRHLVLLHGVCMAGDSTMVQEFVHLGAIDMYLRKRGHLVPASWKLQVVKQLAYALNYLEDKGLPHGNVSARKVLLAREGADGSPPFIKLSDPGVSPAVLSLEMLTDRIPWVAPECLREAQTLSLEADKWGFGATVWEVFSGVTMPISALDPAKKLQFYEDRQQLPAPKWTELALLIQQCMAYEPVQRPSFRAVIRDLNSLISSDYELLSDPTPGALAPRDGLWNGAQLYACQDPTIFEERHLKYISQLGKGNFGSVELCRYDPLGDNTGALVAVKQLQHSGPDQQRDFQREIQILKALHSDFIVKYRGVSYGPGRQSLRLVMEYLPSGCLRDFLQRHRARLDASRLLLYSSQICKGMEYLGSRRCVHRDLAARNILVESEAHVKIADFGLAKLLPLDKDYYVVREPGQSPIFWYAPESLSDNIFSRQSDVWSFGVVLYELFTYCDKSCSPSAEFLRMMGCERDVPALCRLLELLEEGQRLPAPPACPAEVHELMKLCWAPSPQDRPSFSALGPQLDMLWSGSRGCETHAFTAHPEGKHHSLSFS
Experiment: Assay for CD23 expression on Ramos B-cells stimulated by IL-4 (Table IV: ability to inhibit JAK3 activity)
Assay type: cell-based
Conditions: tested under conditions described in Example 3 (so in the source)
Source text: One means of assaying for such inhibition is detection of the effect of the 2,4-pyrimidinediamine compounds on the upregulation of downstream gene products. In the Ramos/IL4 assay, B-cells are stimulated with the cytokine Interleukin-4 (IL-4) leading to the activation of the JAK/Stat pathway through phosphorylation of the JAK family kinases, JAK1 and JAK3, which in turn phosphorylate and activate the transcription factor Stat-6. […] To study the effect of inhibitors (for example, the 2,4-substituted pyrimindinediamine compounds described herein) on the JAK1 and JAK3 kinases, human Ramos B cells are stimulated with human IL-4. 20 to 24 hours post stimulation, cells are stained for upregulation of CD23 and analyzed using FACS.
B-cells stimulated with cytokine Interleukin-4 (IL-4) activate the JAK/Stat pathway through phosphorylation of the JAK family kinases, JAK-1 and JAK-3, which in turn phosphorylate and activate the transcription factor Stat-6. […] To study the effect of inhibitors on the JAK family kinases, human Ramos B cells were stimulated with human IL-4 and the surface expression of CD23 was measured.
The day before the experiment, Ramos B-cells were diluted to 3.5×10^5 cells/mL to ensure that they were in a logarithmic growth phase.
Cells were spun down and suspended in RPMI with 5% serum. 5×10^4 cells were used per point in a 96-well tissue culture plate. Cells were pre-incubated with compound or DMSO (Sigma-Aldrich, St. Louis, Mo., Cat No. D2650) vehicle control for 1 hour in a 37° C. incubator. Cells were then stimulated with IL-4 (Peprotech Inc., Rocky Hill, N.J., Cat No. 200-04) for a final concentration of 50 units/mL for 20-24 hours. […] Detection was performed using a BD LSR I System Flow Cytometer, purchased from Becton Dickinson Biosciences of San Jose, Calif.
The compound designations in Table IV are consistent with those of Tables I-II above.

SMILES | IC50
NC(=O)c1ccc(Nc2ncc([N+](=O)[O-])c(Nc3ccc4oc(=O)[nH]c4c3)n2)cc1 [Compound I-60, 4-(5-nitro-4-(2-oxo-2,3-dihydrobenzo[d]oxazol-5-ylamino)pyrimidin-2-ylamino)benzamide trifluoroacetate salt] | > 10000 nM
COC(=O)c1cnc(Nc2cc(C)c(C)c(OC)c2)nc1Nc1ccc2oc(=O)[nH]c2c1 [Compound I-59, 2-(3-Methoxy-4,5-dimethyl-phenylamino)-4-(2-oxo-2,3-dihydro-benzooxazol-5-ylamino)-pyrimidine-5-carboxylic acid methyl ester trifluoroacetate salt] | > 10000 nM
COc1ccc(Nc2ncc(C)c(Nc3ccc4oc(=O)[nH]c4c3)n2)c(F)c1OC [Compound I-102, 5-(2-(2-fluoro-3,4-d6-dimethoxyphenylamino)-5-methylpyrimidin-4-ylamino)benzo[d]oxazol-2(3H)-one] | < 500 nM
Cc1cc(Nc2ncc(C)c(Nc3ccc4oc(=O)[nH]c4c3)n2)ncc1C#N [II-22, N2-(5-cyano-4-methylpyridin-2-yl)-5-methyl-N4-(2-oxo-2,3-dihydro-1,3-benzoxazol-5-yl)-2,4-pyrimidinediamine] | 500 to 5000 nM
O=c1[nH]c2cc(Nc3ccnc(Nc4cc(F)cc(F)c4)n3)ccc2o1 [Compound I-13, 5-(2-(3,5-difluorophenylamino)pyrimidin-4-ylamino)benzo[d]oxazol-2(3H)-one trifluoroacetate salt] | 500 to 5000 nM
COCCOc1ccc(Nc2ncc(C)c(Nc3ccc4oc(=O)[nH]c4c3)n2)c(F)c1OCCOC [Compound I-77, 5-(2-(2-fluoro-3,4-bis(2-methoxyethoxy)phenylamino)-5-methylpyrimidin-4-ylamino)benzo[d]oxazol-2(3H)-one trifluoroacetate salt] | < 500 nM
COCCOc1c(C)ccc(Nc2ncc(C)c(Nc3ccc4oc(=O)[nH]c4c3)n2)c1F [Compound I-53, 5-{2-[2-Fluoro-3-(2-methoxy-ethoxy)-4-methyl-phenylamino]-5-methyl-pyrimidin-4-ylamino}-3H-benzooxazol-2-one] | < 500 nM
COc1cc(Nc2ncc(CO)c(Nc3ccc4oc(=O)[nH]c4c3)n2)cc(C)c1F [Compound I-80, 5-(2-(4-fluoro-3-methoxy-5-methylphenylamino)-5-(hydroxymethyl)pyrimidin-4-ylamino)benzo[d]oxazol-2(3H)-one trifluoroacetate salt] | 500 to 5000 nM
Cc1cnc(Nc2cc(C)c(C)c(CO)c2)nc1Nc1ccc2oc(=O)[nH]c2c1 [Compound I-147, N2-(3,4-dimethyl-5-hydroxymethyl)phenyl-5-methyl-N4-(2-oxo-2,3-dihydro-1,3-benzoxazol-5-yl)-2,4-pyrimidinediamine] | < 500 nM
Cc1cnc(Nc2ccc3c(c2)COC3)nc1Nc1ccc2oc(=O)[nH]c2c1 [II-9, N2-(1,3-dihydro-isobenzofuran-5-yl)-5-methyl-N4-(2-oxo-2,3-dihydro-1,3-benzoxazol-5-yl)-2,4-pyrimidinediamine] | < 500 nM
Cc1cnc(Nc2cc(C)c(C)c(C)c2)nc1Nc1cc(CN(C)C)c2oc(=O)[nH]c2c1 [Compound I-89, 5-(2-(3,4,5-trimethylphenylamino)-5-methylpyrimidin-4-ylamino)-7-((dimethylamino)methyl)benzo[d]oxazol-2(3H)-one ditrifluoroacetate salt] | 500 to 5000 nM

Other lines, results leading:

IC50 | SMILES
< 500 nM | CCNc1cc(Nc2ncc(C)c(Nc3ccc4oc(=O)[nH]c4c3)n2)cc(C)c1C [Compound I-85, 5-(2-(3-(ethylamino)-4,5-dimethylphenylamino)-5-methylpyrimidin-4-ylamino)benzo[d]oxazol-2(3H)-one formate salt]
< 500 nM | Cc1ccc(Nc2ncc(Cl)c(Nc3ccc4oc(=O)[nH]c4c3)n2)cc1C(F)(F)F [Compound I-9, 5-(5-chloro-2-(4-methyl-3-(trifluoromethyl)phenylamino)pyrimidin-4-ylamino)benzo[d]oxazol-2(3H)-one]
< 500 nM | Cc1cc(Nc2ncc(F)c(Nc3ccc4oc(=O)[nH]c4c3)n2)cc(C)c1F [Compound I-215, N2-(3,5-dimethyl-4-fluoro)phenyl-5-fluoro-N4-(2-oxo-2,3-dihydro-1,3-benzoxazol-5-yl)-2,4-pyrimidinediamine]
< 500 nM | COc1cc(Nc2ncc(C)c(Nc3cc(F)c4oc(=O)[nH]c4c3)n2)cc(C)c1C [Compound I-111, 5-(2-(3-methoxy-4,5-dimethylphenylamino)-5-methylpyrimidin-4-ylamino)-7-fluorobenzo[d]oxazol-2(3H)-one trifluoroacetate trifluoroacetate salt]
< 500 nM | COc1cc(Nc2ncc(F)c(Nc3ccc4oc(=O)[nH]c4c3)n2)cc(Cl)c1OC [Compound I-185, 5-(2-(3-chloro-4,5-dimethoxyphenylamino)-5-fluoropyrimidin-4-ylamino)benzo[d]oxazol-2(3H)-one trifluoroacetate salt]
< 500 nM | O=c1[nH]c2cc(Nc3nc(Nc4ccc(F)c(-c5ccncc5)c4)ncc3F)ccc2o1 [Compound I-205, 5-(2-(4-fluoro-3-(pyridin-4-yl)phenylamino)-5-fluoropyrimidin-4-ylamino)benzo[d]oxazol-2(3H)-one]
< 500 nM | COc1cc(Nc2ncc(C)c(Nc3ccc4oc(=O)[nH]c4c3)n2)cc(C)c1CO [Compound I-129, 4-(4-(2,3-dihydro-2-oxobenzo[d]oxazol-5-ylamino)-5-methylpyrimidin-2-ylamino)-2-methoxy-6-methylbenzyl alcohol trifluoroacetate salt]
< 500 nM | [2H]C([2H])([2H])Oc1cc(C)cc(Nc2ncc(F)c(Nc3ccc4oc(=O)[nH]c4c3)n2)c1 [Compound I-175, 5-(5-fluoro-2-(3-d3-methoxy-5-methylphenylamino)pyrimidin-4-ylamino)benzo[d]oxazol-2(3H)-one trifluoroacetate salt]
< 500 nM | Cc1cnc(Nc2cc(C)c(C)c(C)c2)nc1Nc1ccc2oc(=O)[nH]c2c1 [Compound I-131, 5-methyl-N4-(2-oxo-2,3-dihydro-1,3-benzoxazol-5-yl)-N2-(3,4,5-trimethyl)phenyl-2,4-pyrimidinediamine benzenesulfonic acid salt]
< 500 nM | COc1cccc(Nc2ncc(C)c(Nc3ccc4oc(=O)[nH]c4c3)n2)n1 [II-20, N2-(6-methoxypyridin-2-yl)-5-methyl-N4-(2-oxo-2,3-dihydro-1,3-benzoxazol-5-yl)-2,4-pyrimidinediamine]
< 500 nM | Cc1cc(Nc2ncc(CO)c(Nc3ccc4oc(=O)[nH]c4c3)n2)cc(C)c1F [Compound I-79, 5-(2-(4-fluoro-3,5-dimethylphenylamino)-5-(hydroxymethyl)pyrimidin-4-ylamino)benzo[d]oxazol-2(3H)-one trifluoroacetate salt]
< 500 nM | [2H]C([2H])([2H])c1c(C)cc(Nc2ncc(C)c(Nc3ccc4oc(=O)[nH]c4c3)n2)cc1C [Compound I-35, 5-[5-Methyl-2-(3,5-dimethyl-4-d3-methyl-phenylamino)-pyrimidin-4-ylamino]-3H-benzooxazol-2-one trifluoroacetate salt]

Source: patent publication US11174251B2, “Compositions and methods for inhibition of the JAK pathway” (Rigel Pharmaceuticals, Inc., priority 2010, dated 2021)
